Tests used:
Assay type in all cases: in vivo
Lolium perenne (LOLPE) [1] = experiment: Pre-emergence herbicidal test; settings: 1000 g/ha, evaluated after 13 days
[2] = test system: Echinochloa crus-galli (ECHCG); experiment: Pre-emergence herbicidal test; settings: 1000 g/ha, evaluated after 13 days
[3] = test system: Amaranthus retoflexus (AMARE); experiment: Pre-emergence herbicidal test; settings: 1000 g/ha, evaluated after 13 days
Solanum nigrum (SOLNI) [4] = experiment: Pre-emergence herbicidal test; settings: 1000 g/ha, evaluated after 13 days
Setaria faberi (SETFA) [5] = experiment: Pre-emergence herbicidal test; settings: 1000 g/ha, evaluated after 13 days
Solanum nigrum (SOLNI) [6] = experiment: Post-emergence herbicidal test; settings: 1000 g/ha unless otherwise stated, evaluated after 13 days
Method in brief: (§1)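 Spray treatment, 1000 g/ha unless noted; vehicle acetone/water (50:50), 0.5% Tween 20. Glasshouse 24/16° C., 14 h light, 65% humidity. Percent injury rated at 13 d, banded 0–5.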

Setaria faberi (SETFA) [7] = experiment: Post-emergence herbicidal test; settings: 1000 g/ha unless otherwise stated, evaluated after 13 days
Method in brief: as §1

[8] = test system: Echinochloa crus-galli (ECHCG); experiment: Post-emergence herbicidal test; settings: 1000 g/ha unless otherwise stated, evaluated after 13 days
Method in brief: as §1

[9] = test system: Ipomoea hederacea (IPOHE); experiment: Post-emergence herbicidal test; settings: 1000 g/ha unless otherwise stated, evaluated after 13 days
Method in brief: as §1

Lolium perenne (LOLPE) [10] = experiment: Post-emergence herbicidal test; settings: 1000 g/ha unless otherwise stated, evaluated after 13 days
Method in brief: as §1

[11] = test system: Amaranthus retoflexus (AMARE); experiment: Post-emergence herbicidal test; settings: 1000 g/ha unless otherwise stated, evaluated after 13 days
Method in brief: as §1

[12] = test system: Ipomoea hederacea (IPOHE); experiment: Pre-emergence herbicidal test; settings: 1000 g/ha, evaluated after 13 days

| SMILES | percentage damage caused to the plant, five-point scale, LOLPE (Lolium perenne (LOLPE) [1]) | percentage damage caused to the plant, five-point scale, ECHCG [2] | percentage damage caused to the plant, five-point scale, AMARE [3] | percentage damage caused to the plant, five-point scale, SOLNI (Solanum nigrum (SOLNI) [4]) | percentage damage caused to the plant, five-point scale, SETFA (Setaria faberi (SETFA) [5]) | percentage damage caused to the plant, SOLNI (five-point scale) (Solanum nigrum (SOLNI) [6]) | percentage damage caused to the plant, SETFA (five-point scale) (Setaria faberi (SETFA) [7]) | percentage damage caused to the plant, ECHCG (five-point scale) [8] | percentage damage caused to the plant, IPOHE (five-point scale) [9] | percentage damage caused to the plant, LOLPE (five-point scale) (Lolium perenne (LOLPE) [10]) | percentage damage caused to the plant, AMARE (five-point scale) [11] | percentage damage caused to the plant, five-point scale, IPOHE [12] |
| --- | --- | --- | --- | --- | --- | --- | --- | --- | --- | --- | --- | --- |
| CSc1cccc2c1c(=O)c(C(=O)O)nn2-c1ccc(Cl)cc1 [Compound P4, 1-(4-chlorophenyl)-5-methylsulfanyl-4-oxo-cinnoline-3-carboxylic acid] | 0 (0=0%) | 0 (0=0%) | 0 (0=0%) | 0 (0=0%) | 0 (0=0%) | 0 (0=0%) | 0 (0=0%) | 0 (0=0%) | 0 (0=0%) | 0 (0=0%) | 0 (0=0%) | 0 (0=0%) |
| CSc1cccc2c1c(=O)c(C(=O)O)nn2-c1ccc(OC(F)(F)F)cc1 [Compound P1, 5-methylsulfanyl-4-oxo-1-[4-(trifluoromethoxy)phenyl]cinnoline-3-carboxylic acid] | 0 (0=0%) | 0 (0=0%) | 0 (0=0%) | 0 (0=0%) | 0 (0=0%) | 0 (0=0%) | 0 (0=0%) | 0 (0=0%) | 0 (0=0%) | 0 (0=0%) | 0 (0=0%) | 0 (0=0%) |
| CS(=O)(=O)c1cccc2c1c(=O)c(C(=O)O)nn2-c1ccc(OC(F)(F)F)cc1 [Compound P2, 5-methylsulfonyl-4-oxo-1-[4-(trifluoromethoxy)phenyl]cinnoline-3-carboxylic acid] | 5 (5=81-100%) | 5 (5=81-100%) | 1 (1=10-20%) | 4 (4=61-80%) | 5 (5=81-100%) | 4 (4=61-80%) | 4 (4=61-80%) | 4 (4=61-80%) | 2 (2=21-40%) | 4 (4=61-80%) | 1 (1=10-20%) | 1 (1=10-20%) |
| COC(=O)c1nn(-c2ccc(OC(F)(F)F)cc2)c2cccc(S(C)(=O)=O)c2c1=O [Compound P3, methyl 5-methylsulfonyl-4-oxo-1-[4-(trifluoromethoxy)phenyl]cinnoline-3-carboxylate] | 4 (4=61-80%) | 4 (4=61-80%) | 1 (1=10-20%) | 1 (1=10-20%) | 4 (4=61-80%) | 1 (1=10-20%) | 4 (4=61-80%) | 4 (4=61-80%) | 1 (1=10-20%) | 4 (4=61-80%) | 1 (1=10-20%) | 1 (1=10-20%) |
| CS(=O)(=O)c1cccc2c1c(=O)c(C(=O)O)nn2-c1ccc(Cl)cc1 [Compound P5, 1-(4-chlorophenyl)-5-methylsulfonyl-4-oxo-cinnoline-3-carboxylic acid] | 4 (4=61-80%) | 4 (4=61-80%) | 1 (1=10-20%) | 1 (1=10-20%) | 4 (4=61-80%) | 4 (4=61-80%) | 4 (4=61-80%) | 4 (4=61-80%) | 1 (1=10-20%) | 4 (4=61-80%) | 1 (1=10-20%) | 1 (1=10-20%) |
